Entries after “also recorded” stand apart in the source; their conditions may differ.
Experiments:
[1] = tested on: Radiation Induced Oral Mucositis in Hamsters; assay: Radiation induced oral mucositis in hamsters (left buccal pouch, single 40 Gy dose on Day 0); type: in vivo, Male LVG Syrian Golden Hamsters; conditions: for maximum mean mucositis score: score scale 0-5
Text: Male LVG Syrian Golden Hamsters, 5 to 6 weeks old, weighing 87.7 to 97.1 g (Charles River Laboratories, US) at the commencement of the study, were used. An ear punch was used to number the animals individually. Approximately 8-10 animals were housed per cage. The animals were acclimatized for at least 3 days before experimentation. During this period, they were observed daily to ensure that the animals are in good condition. The animals that presented poor condition were rejected.
Animals were randomly and prospectively divided into 5 groups: • i) Group 1: Animals (n=8) were administered with 5% w/v dextrose monohydrate intraperitoneally from Day 0 to Day 4 or from Day 0 to Day 9. • ii) Group 2: Animals (n=10) were administered with 10 mg/kg of compound A intraperitoneally from Day 0 to Day 4. • iii) Group 3: Animals (n=10) were administered with 20 mg/kg of compound A intraperitoneally from Day 0 to Day 4. • iv) Group 4: Animals (n=10) administered with 10 mg/kg of compound A intraperitoneally from Day 0 to Day 9. • v) Group 5: Animals (n=10) administered with 20 mg/kg of compound A intraperitoneally from day Day 0 to Day 9.
Mucositis induction: The animals were anesthetized and the left buccal pouch was everted, fixed and isolated using a lead shield. The left buccal pouch mucosa of the animal was exposed to radiation at a rate of 2.0 Gy/minute. A single dose of radiation (40 Gy/dose) was administered to all animals on Day 0. Radiation was generated with 160 kilovolt potential source at a focal distance of 21 cm, hardened with a 0.35 mm Al filtration system. Animals of Group 2 to 5 were treated with compound A as per the schedule detailed above one hour prior to the radiation. The volume administered to all the above Groups was 0.2 mL/100 g.
For evaluation of mucositis, the animals were anesthetized with an inhalation anesthetic and the left buccal pouch everted. Mucositis was scored visually using the following criteria for evaluation:
Weight change and survival were also measured throughout the study.
The significance of differences observed between the different treatment groups was evaluated by comparing the days with mucositis scores ≧3 and […] between groups using a chi-squared analysis.
An analysis of the severity of mucositis was performed using Mann-Whitney rank sum analysis to compare the visual mucositis scores for each treatment group to the vehicle control on each day of the analysis.
The percentage of animals in each group with ulcerative mucositis at each day of the study was evaluated.

[2] = tested on: Radiation Induced Oral Mucositis; assay: Clinical study of compound A with external beam radiotherapy in squamous cell carcinoma of oral cavity, oropharynx and hypopharynx; type: in vivo
Method: The compound A and external beam radiotherapy (EBRT) were administered for six weeks i.e., 2 cycles of compound A and […] of radiation. One, three weeks (21 days) cycle of combination regimen comprised of dosing compound A for days 1 to 5 and EBRT on days 1 to 5, 8 to 12 and 15 to 19. The combination treatment schedule is depicted in the following table:
A] Dose of compound A: In the Phase I part of the clinical trial, 11 patients were enrolled and 100 mg/m^2/day of compound A was determined to be the maximum tolerated dose (MTD) as two dose limiting toxicities occurred at the higher dose of 140 mg/m^2/day. Additional 12 subjects were enrolled at the MTD dose level to confirm the safety and tolerability of that dose. B] Procedure: Compound A (100 mg/m^2/day) in 5% dextrose (200 mL) was administered to 19 patients as intravenous infusion over 30 minutes on days 1 to 5 of a 21 day cycle. After about 1.5 hours of infusion of compound A, the patients received EBRT (2 Grays per day for 5 days) to the affected body parts (primary tumor site and involved cervical lymph nodes) through linear accelerator. Patients continued to receive EBRT (2 Grays per day) on days 8-12 and 15-19. On days 6, 7, 13 and 14 patients were not infused with compound A, neither were exposed to radiotherapy.
The procedure was repeated for cycle 2.
At investigator's discretion, some patients were given additional radiation of up to 10 additional Grays (2 Grays per day for 5 days) commencing immediately after the completion of the prescribed radiation dose of 60 Grays. Total radiation dose for spinal cord was less than 48 Grays.
The Common Terminology Criteria for Adverse Events (version 3) (version 3, Publish Date: Aug. 9, 2006) laid down by the National Cancer Institute for oral mucositis in radiation therapy was followed.

[3] = amifostine therapy, serious side-effect; cited from earlier work
[4] = 19 evaluable patients, 100 mg/m^2/day i.v. plus EBRT, CTCAE version 3

SMILES: CN1CC[C@@H](c2c(O)cc(O)c3c(=O)cc(-c4ccccc4Cl)oc23)[C@@H]1CO.Cl [Compound A, (+)-trans-2-(2-Chlorophenyl)-5,7-dihydroxy-8-(2-hydroxymethyl-1-methyl-pyrrolidin-3-yl)-chromen-4-one hydrochloride]
- percent of days and number of days with ulcerative mucositis (score ≧3) compared to vehicle control ([1]; 10 mg/kg from Days 0 to 9): significantly reduced
- maximum mean mucositis score ([1]; Group 2: 10 mg/kg intraperitoneally Day 0 to Day 4, maximum on Day 18): 3.0
- maximum mean mucositis score ([1]; Group 3: 20 mg/kg intraperitoneally Day 0 to Day 4, maximum on Day 16): 3.0
- mucositis severity (visual mucositis scores vs vehicle control, Mann-Whitney rank sum) ([1]; Group 4: 10 mg/kg i.p. Day 0 to Day 9, Day 18 (p=0.073) and Day 28 (p=0.064)): strong trend of lower scores
- mucositis severity (visual mucositis scores vs vehicle control, Mann-Whitney rank sum) ([1]; Group 4: 10 mg/kg i.p. Day 0 to Day 9, Day 24 (p=0.002) and Day 26 (p=0.024), hydrochloride, 10 mg/kg): significant reductions in mucositis; also recorded: significant improvement in mucositis scores
- reduction of percentage of animals with ulcerative mucositis (score ≧3) compared to Group 1 ([1]; Group 4: 10 mg/kg i.p. Day 0 to Day 9, Days 24 to 28, first of three values): 72.7%
- reduction of percentage of animals with ulcerative mucositis (score ≧3) compared to Group 1 ([1]; Group 4: 10 mg/kg i.p. Day 0 to Day 9, Days 24 to 28, second of three values): 83.8
- reduction of percentage of animals with ulcerative mucositis (score ≧3) compared to Group 1 ([1]; Group 4: 10 mg/kg i.p. Day 0 to Day 9, Days 24 to 28, third of three values): 77.8%
- percentage of animal days with a mucositis score of ≧3 ([1]; Group 4: 10 mg/kg i.p. Day 0 to Day 9, entire study duration, vehicle control 63.0%): 43.5%
- maximum mean mucositis score ([1]; Group 4: 10 mg/kg intraperitoneally Day 0 to Day 9, maximum on Day 16): 3.0
- maximum mean mucositis score ([1]; Group 5: 20 mg/kg intraperitoneally Day 0 to Day 9, maximum on Day 16): 3.1
- percent body weight change among groups ([1]; Groups 1 to 5, one-way ANOVA): no significant difference
- percentage of animal days with a mucositis score of ≧3 compared to vehicle control ([1]; other 3 treatment groups (Groups 2, 3 and 5), chi-squared analysis): not significantly different
- radioprotective effect, compared with historical rates of serious RIM (Grade 3 and above, Trotti et al.) ([2]; 19 evaluable patients, 100 mg/m^2/day i.v. plus EBRT): has radioprotective effects
- events of mucositis reported (all grades) ([2]; 19 evaluable patients, 100 mg/m^2/day i.v. plus EBRT 2 Grays per day, 2 cycles, CTCAE version 3): five
- events of mild mucositis (Grade 1) [2, 4]: one
- events of moderate mucositis (Grade 2) [2, 4]: one
- events of moderate stomatitis (Grade 2) [2, 4]: two
- events of severe mucositis (Grade 3) [2, 4]: one
- maximum tolerated dose (MTD) ([2]; Phase I part, intravenous infusion days 1 to 5 of a 21 day cycle, with EBRT): 100 mg/m^2/day
- dose limiting toxicities ([2]; human, in vivo): two

SMILES: NCCCNCCSP(=O)(O)O [amifostine, Amifostine]
- hypotension, share of patients [3]: 62%
